Measured values from the supplement of paper PMC8671470.

What was measured:
Assay in all cases: cell viability (% survival relative to DMSO control, bortezomib = 0%); higher = less cytotoxic
Conditions in all cases: 72 h
BV-173 = test system: BV-173
Summary of the method: (§1)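 Fifteen myeloid leukaemia cell lines (10 AML, 5 CML) were seeded at a density titrated to the linear growth range into 384-well plates pre-printed with compounds at 1, 10, 100, 1000 or 10000 nM in duplicate. Plates were incubated for 72 h at 37 °C with 5% CO2. Viability was then read by CellTiter-Glo luminescence. Each value is percent survival averaged over the duplicates, with vehicle set to 100% and a 10 µM positive control to 0%.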

MOLM-13 = test system: MOLM-13
Summary of the method: as §1

NOMO-1 = test system: NOMO-1
Summary of the method: as §1

THP-1 = test system: THP-1
Summary of the method: as §1

Row | Structure (SMILES) | cell viability (BV-173; 1 nM) [%] | cell viability (BV-173; 10 nM) [%] | cell viability (BV-173; 100 nM) [%] | cell viability (BV-173; 1000 nM) [%] | cell viability (BV-173; 10000 nM) [%] | cell viability (MOLM-13; 1 nM) [%] | cell viability (MOLM-13; 10 nM) [%] | cell viability (MOLM-13; 100 nM) [%] | cell viability (MOLM-13; 1000 nM) [%] | cell viability (MOLM-13; 10000 nM) [%] | cell viability (NOMO-1; 1 nM) [%] | cell viability (NOMO-1; 10 nM) [%] | cell viability (NOMO-1; 100 nM) [%] | cell viability (NOMO-1; 1000 nM) [%] | cell viability (NOMO-1; 10000 nM) [%] | cell viability (THP-1; 1 nM) [%] | cell viability (THP-1; 10 nM) [%] | cell viability (THP-1; 100 nM) [%] | cell viability (THP-1; 1000 nM) [%] | cell viability (THP-1; 10000 nM) [%]
1 | Clc1ccc2c(c1Cl)CNCC2 | 95 | 95.9 | 103 | 107 | 83.6 | 102 | 125 | 70.3 | 92.3 | 83.7 | 95.4 | 100 | 101 | 102 | 90.9 | 98.8 | 99.4 | 99.7 | 105 | 90.5
2 | O=C(O)C(S)=Cc1c[nH]c2ccc(F)cc12 | 97.4 | 98.1 | 85.1 | 97.7 | 88 | 95.9 | 103 | 99.9 | 107 | 77.3 | 103 | 97.9 | 107 | 116 | 94.8 | 99.1 | 97.6 | 98 | 113 | 101
3 | CC(C)Cc1sc(N)nc1-c1ccc(P(=O)(O)O)o1 | 85.3 | 111 | 102 | 95.2 | 86.7 | 134 | 97 | 102 | 113 | 104 | 97.7 | 96.9 | 98 | 99.5 | 83.9 | 107 | 103 | 98.3 | 104 | 95.5
4 | Cl.OC[C@H]1NC[C@@H](O)[C@@H](O)[C@@H]1O [1-Deoxymannojirimycin hydrochloride] | 111 | 83.1 | 96.9 | 103 | 102 | 115 | 88.3 | 96.3 | 104 | 105 | 103 | 89.9 | 104 | 99.3 | 92.1 | 107 | 91 | 98 | 102 | 91.9
5 | CN(C)c1nc(O)c2[nH]cnc2n1 [2-Dimethylamino-6-hydroxypurine] | 104 | 93 | 93.5 | 121 | 93.9 | 96.1 | 65.7 | 104 | 91 | 66.9 | 101 | 95.9 | 108 | 102 | 105 | 95.1 | 94.5 | 86.6 | 97.3 | 97.3
6 | O=C(O)c1cc2sccc2[nH]1 [4H-thieno[3,2-b]pyrrole-5-carboxylic acid] | 104 | 102 | 102 | 99.1 | 100 | 103 | 94.7 | 89.3 | 112 | 109 | 105 | 97.8 | 98.3 | 106 | 110 | 105 | 102 | 106 | 97.7 | 105
7 | [N-]=[N+]=CC(=O)CC[C@H](N)C(=O)O [6-Diazo-5-oxo-L-norleucine] | 94.8 | 89.6 | 107 | 93.4 | 96.5 | 106 | 111 | 119 | 101 | 116 | 98.9 | 99.9 | 104 | 97.1 | 106 | 98.1 | 96.7 | 100 | 102 | 106
8 | Sc1ncnc2nc[nH]c12 [6-mercaptopurine] | 103 | 93.8 | 86.8 | 38.8 | 12.3 | 117 | 87.6 | 108 | 53 | 16 | 108 | 86.7 | 88.6 | 41.5 | 30.5 | 98.3 | 106 | 98.1 | 90.6 | 85.2
9 | O=C(O)CC[C@H](NC(=O)c1ccc([N+](=O)[O-])cc1)C(=O)O [(S)-2-(4-Nitrobenzamido)pentanedioic acid] | 96.2 | 108 | 92.8 | 104 | 80.7 | 89 | 124 | 94.6 | 98.5 | 105 | 92.4 | 95 | 99.6 | 105 | 95.6 | 102 | 107 | 93.7 | 105 | 95.5
10 | O=C1Nc2ccccc2/C1=C\NCCc1ccc(O)c(O)c1 [AC1NZZMF] | 99.7 | 103 | 104 | 94.1 | 60.9 | 97.6 | 104 | 101 | 108 | 88.9 | 105 | 111 | 98 | 113 | 99.9 | 108 | 103 | 100 | 108 | 79.9
11 | Cc1ccc(S(=O)(=O)NC2c3ccccc3Oc3ccccc32)cc1 [AH-7614] | 87.1 | 91.2 | 102 | 98.4 | 104 | 95.3 | 113 | 111 | 102 | 93.7 | 102 | 102 | 104 | 97.1 | 103 | 96.9 | 96.7 | 99 | 96.7 | 100
